According to ChEMBL document CHEMBL2440085, “Identification of novel PARP-1 inhibitors by structure-based virtual screening” (Bioorg Med Chem Lett, 2013):
Active and inactive are the calls of the source. No cut-off for these calls is given here.

Biological target: T1, Poly [ADP-ribose] polymerase 1 (Homo sapiens, UniProt P09874)
Assay: Inhibition of PARP-1 (unknown origin) at 1 uM after 60 mins by colorimetric assay relative to control

T1 sequence (P09874 whole entry): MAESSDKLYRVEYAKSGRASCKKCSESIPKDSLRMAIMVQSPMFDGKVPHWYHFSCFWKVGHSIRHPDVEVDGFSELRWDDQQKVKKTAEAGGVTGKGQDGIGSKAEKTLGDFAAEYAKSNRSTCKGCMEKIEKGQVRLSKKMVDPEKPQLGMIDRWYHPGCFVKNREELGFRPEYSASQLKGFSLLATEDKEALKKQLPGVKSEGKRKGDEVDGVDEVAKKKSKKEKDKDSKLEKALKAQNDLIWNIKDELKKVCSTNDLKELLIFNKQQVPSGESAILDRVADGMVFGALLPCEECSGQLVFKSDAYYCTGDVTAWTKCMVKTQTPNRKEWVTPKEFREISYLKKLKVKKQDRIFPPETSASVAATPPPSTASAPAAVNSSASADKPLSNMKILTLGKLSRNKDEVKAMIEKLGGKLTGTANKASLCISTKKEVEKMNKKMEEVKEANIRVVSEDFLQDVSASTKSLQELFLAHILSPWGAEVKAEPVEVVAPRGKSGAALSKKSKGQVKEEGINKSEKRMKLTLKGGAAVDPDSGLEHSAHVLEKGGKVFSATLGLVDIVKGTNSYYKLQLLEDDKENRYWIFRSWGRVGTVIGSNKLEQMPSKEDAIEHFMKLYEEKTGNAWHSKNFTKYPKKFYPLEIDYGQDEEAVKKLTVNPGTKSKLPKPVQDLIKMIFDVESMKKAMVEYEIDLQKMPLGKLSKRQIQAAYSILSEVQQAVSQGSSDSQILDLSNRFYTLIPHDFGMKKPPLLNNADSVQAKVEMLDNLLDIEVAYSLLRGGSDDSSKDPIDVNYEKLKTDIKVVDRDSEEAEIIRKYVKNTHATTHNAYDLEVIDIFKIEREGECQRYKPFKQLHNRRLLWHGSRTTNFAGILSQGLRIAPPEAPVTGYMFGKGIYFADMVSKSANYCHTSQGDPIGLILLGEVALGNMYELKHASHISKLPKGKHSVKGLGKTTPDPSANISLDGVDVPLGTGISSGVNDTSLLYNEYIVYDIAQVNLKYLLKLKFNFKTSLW

| SMILES | inhibition |
| --- | --- |
| Cc1ccc2cc(CCN)c(=O)[nH]c2c1C | inactive |
| O=C(c1ccccc1)c1c2nc[nH]c(=O)c2c2ccccn12 | inactive |
| O=C1NC(=O)c2cc(NS(=O)(=O)c3cccc4cccnc34)ccc21 | inactive |
| Cc1cccc(N2CCN(c3nnc(C)c(=O)[nH]3)CC2)c1C | inactive |
| CCCn1c2c(c(=S)[nH]c1=O)CCC2 | inactive |
| N#Cc1c(-c2ccccc2)cn2c1[nH]c(=O)c1ccccc12 | 40% |
| CC1Oc2ccc(NC(=O)CNC(=O)c3ccccc3)cc2NC1=O (stereo not given) | inactive |
| CC1Oc2ccc(NC(=O)COc3ccc(F)cc3)cc2NC1=O (stereo not given) | inactive |
| Cc1nn2nnnc2[nH]c1=O | inactive |
| O=C(CS(=O)(=O)CC(=O)c1ccc2c(c1)NC(=O)CO2)Nc1ccccc1 | inactive |
| Cc1ccc(C(=O)C2=C3NC(=O)c4ccccc4N3Cc3ccccc32)cc1 | inactive |
| O=C1Nc2ccc(S(=O)(=O)NCc3ccccn3)c3cccc1c23 | inactive |
| O=C(O)CN1C(=O)c2ccc3c4c(ccc(c24)C1=O)C(=O)N3 | inactive |
| O=c1[nH]c(NCc2ccncc2)nc2c1CCC2 | inactive |
| O=C1N[C@H]2Cc3ccccc3CN2c2ccccc21 | 40% |
| CCN(CC)c1ccc(/C=N\Nc2nnc(C)c(=O)[nH]2)cc1 | inactive |
| O=C(CSc1nc2sc3c(c2c(=O)[nH]1)CCC3)N(CCO)CCO | 40% |
| Cc1cc(OCC(=O)Nc2ccc3c(c2)NC(=O)C(C)O3)ccc1Cl (stereo not given) | inactive |
| Oc1nc2ccccc2n2nnnc12 | inactive |
| O=C(c1ccc(F)cc1)c1c2nc[nH]c(=O)c2c2ccccn12 | inactive |
| O=c1[nH]n(-c2ccc([N+](=O)[O-])cc2)c(=O)c2ccccc12 | inactive |
| Cc1ccc(C(=O)CSc2nc3c(c(=O)[nH]2)CCC3)cc1 | inactive |
| CC(C)(C)c1nn2c(SCC(=O)c3ccc(Cl)c(Cl)c3)nnc2[nH]c1=O | inactive |
| Cc1sc2nc(SCC(=O)N3CCN(CCO)CC3)[nH]c(=O)c2c1C | 40% |
| O=C1Nc2ccc(S(=O)(=O)Nc3ccc(Cl)cn3)c3cccc1c23 | inactive |
| O=C1Nc2ccc(S(=O)(=O)NCc3cccnc3)c3cccc1c23 | inactive |
| O=C1N[C@@H]2N(Cc3ccccc3C23CCOCC3)c2ccccc21 | 40% |

Biological target: T1, Poly [ADP-ribose] polymerase 1
Assay: Inhibition of PARP-1 (unknown origin) at 10 uM after 60 mins by colorimetric assay relative to control

| SMILES | inhibition [%] |
| --- | --- |
| O=c1[nH]cnc2sccc12 | < 20 |
| Oc1ncnc2ccsc12 | 46 |

Biological target: T1, Poly [ADP-ribose] polymerase 1
Assay: Inhibition of PARP-1 (unknown origin) after 60 mins by colorimetric assay

| SMILES | IC50 [nM] |
| --- | --- |
| N#Cc1c(-c2ccccc2)cn2c1[nH]c(=O)c1ccccc12 | 9570 |
| O=c1[nH]cnc2ccsc12 | 14000 |
| O=C1N[C@H]2Cc3ccccc3CN2c2ccccc21 | 1920 |
| O=C(CSc1nc2sc3c(c2c(=O)[nH]1)CCC3)N(CCO)CCO | 2140 |
| Cc1sc2nc(SCC(=O)N3CCN(CCO)CC3)[nH]c(=O)c2c1C | 720 |
| O=C1N[C@@H]2N(Cc3ccccc3C23CCOCC3)c2ccccc21 | 1960 |
